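Following 48 hours of exposure in 96-well plates, responses at five concentrations were used to interpolate endpoints linearly. GI50 marks 50% less growth.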 Active and inactive are the calls of the source. Cut-off read from the data, not from the text of the source: active = GI50 up to about 1.1 µM and inactive = higher.
Tests used:
Experiment in all cases: NCI tumour cell line growth inhibition, 48 h
RPMI-8226 = system: RPMI-8226
IGROV-1 = system: IGROV-1
OVCAR-3 = system: OVCAR-3
NCI-H522 = system: NCI-H522
CCRF-CEM = system: CCRF-CEM
HOP-62 = system: HOP-62
NCI-H460 = system: NCI-H460
NCI-H23 = system: NCI-H23
SK-MEL-28 = system: SK-MEL-28
SF-268 = system: SF-268
HT-29 = system: HT-29
SNB-19 = system: SNB-19
SK-MEL-5 = system: SK-MEL-5
SN12C = system: SN12C
SW-620 = system: SW-620
K562 = system: K562
SK-MEL-2 = system: SK-MEL-2
SNB-75 = system: SNB-75
SF-295 = system: SF-295
UACC-257 = system: UACC-257

Measured: GI50

CCN(CC)C(=O)c1cc(OC(C)C)ccc1-c1c(C)cc(OC(C)C)c(OC)c1OC
inactive: RPMI-8226 24.2 µM | IGROV-1 > 100 µM | OVCAR-3 71 µM | NCI-H522 40 µM | CCRF-CEM 34 µM | HOP-62 > 100 µM | NCI-H460 36.1 µM | NCI-H23 60 µM | SK-MEL-28 > 100 µM | SF-268 > 100 µM | HT-29 38 µM | SNB-19 79.1 µM | SK-MEL-5 35.6 µM | SN12C 61.4 µM | SW-620 98.4 µM | K562 44.2 µM | SK-MEL-2 46.7 µM

COc1ccc(C2N(NC(=O)c3ccncc3)C(=O)CS2(=O)=O)cc1F (centres undefined)
inactive: RPMI-8226 > 100 µM | SNB-75 37.6 µM | SF-295 > 100 µM | NCI-H522 92.3 µM | CCRF-CEM > 100 µM | HOP-62 > 100 µM | NCI-H460 > 100 µM | NCI-H23 > 100 µM | SK-MEL-28 > 100 µM | UACC-257 > 100 µM | SF-268 > 100 µM | HT-29 > 100 µM | SNB-19 > 100 µM | SK-MEL-5 > 100 µM | SN12C > 100 µM | SW-620 > 100 µM | SK-MEL-2 > 100 µM

O=C(NC1C/C(=N/O)c2c(Br)sc(Br)c21)C(F)(F)F (centres undefined)
inactive: IGROV-1 94 µM | SNB-75 29.5 µM | OVCAR-3 35.8 µM | SF-295 31 µM | NCI-H522 26.1 µM | CCRF-CEM 20.2 µM | NCI-H460 25.4 µM | NCI-H23 16 µM | UACC-257 22.9 µM | SF-268 23.6 µM | HT-29 26.9 µM | SNB-19 41.7 µM | SK-MEL-5 19.6 µM | SN12C 21.2 µM | SW-620 30.2 µM | K562 20 µM | SK-MEL-2 11.4 µM

COc1ccc(C(CC(=O)c2ccc(O)cc2)C(C(=O)c2ccc(O)cc2)C(c2ccc(OC)cc2)C2C(=O)NC(=S)NC2=O)cc1 (centres undefined)
inactive: RPMI-8226 22.6 µM | IGROV-1 15.5 µM | SNB-75 25.8 µM | SF-295 20 µM | NCI-H522 14.9 µM | CCRF-CEM 11.1 µM | HOP-62 26.1 µM | NCI-H460 18.1 µM | SK-MEL-28 16.2 µM | UACC-257 17.5 µM | SF-268 15.7 µM | HT-29 27 µM | SNB-19 21.8 µM | SK-MEL-5 21.5 µM | SN12C 24.7 µM | SW-620 23.1 µM | K562 30.5 µM | SK-MEL-2 29.8 µM

COC1CC(OC)C2OC(c3ccccc3)OCC2O1 (centres undefined)
inactive: IGROV-1 > 100 µM | SNB-75 > 100 µM | OVCAR-3 > 100 µM | SF-295 > 100 µM | NCI-H522 > 100 µM | CCRF-CEM > 100 µM | HOP-62 > 100 µM | NCI-H460 > 100 µM | NCI-H23 > 100 µM | SK-MEL-28 > 100 µM | UACC-257 > 100 µM | HT-29 > 100 µM | SK-MEL-5 > 100 µM | SN12C > 100 µM | SW-620 > 100 µM | K562 > 100 µM | SK-MEL-2 > 100 µM

COC1OC(CS(=O)(=O)O)C(O)C(O)C1O (centres undefined)
inactive: RPMI-8226 > 100 µM | IGROV-1 > 100 µM | SNB-75 > 100 µM | OVCAR-3 > 100 µM | SF-295 > 100 µM | CCRF-CEM > 100 µM | HOP-62 > 100 µM | NCI-H460 > 100 µM | NCI-H23 > 100 µM | SK-MEL-28 > 100 µM | UACC-257 > 100 µM | HT-29 > 100 µM | SNB-19 > 100 µM | SK-MEL-5 > 100 µM | SN12C > 100 µM | SW-620 > 100 µM | K562 > 100 µM | SK-MEL-2 > 100 µM

O=C1CC(CC(OCc2ccccc2)C(COCc2ccccc2)OCc2ccccc2)CC(=O)N1 (centres undefined)
inactive: RPMI-8226 34.5 µM | IGROV-1 70.5 µM | SNB-75 52.7 µM | OVCAR-3 37.4 µM | SF-295 34.9 µM | NCI-H522 23.7 µM | CCRF-CEM 37.1 µM | HOP-62 39.8 µM | NCI-H460 32.4 µM | NCI-H23 43.1 µM | SK-MEL-28 63.4 µM | UACC-257 27.4 µM | SF-268 58.1 µM | HT-29 24.7 µM | SK-MEL-5 15.4 µM | SN12C 44.6 µM | SW-620 50.6 µM | K562 33.7 µM

O=C1C=CC=C/C1=C1/SC(c2ccccc2)=C(O)N1c1ccccc1
inactive: IGROV-1 > 100 µM | SNB-75 > 100 µM | OVCAR-3 > 100 µM | SF-295 > 100 µM | NCI-H522 > 100 µM | NCI-H23 > 100 µM | SK-MEL-28 > 100 µM | UACC-257 > 100 µM | SF-268 > 100 µM | HT-29 > 100 µM | SNB-19 > 100 µM | SK-MEL-5 > 100 µM | SN12C > 100 µM | SW-620 > 100 µM | SK-MEL-2 > 100 µM

Cc1[nH]c2ncn(/N=C/c3ccccc3O)c(=N)c2c1Cc1ccccc1
inactive: RPMI-8226 37.8 µM | IGROV-1 > 100 µM | SNB-75 91 µM | OVCAR-3 24.2 µM | SF-295 58.6 µM | CCRF-CEM 39.4 µM | HOP-62 > 100 µM | NCI-H460 66.7 µM | NCI-H23 50.6 µM | SK-MEL-28 42.3 µM | UACC-257 34.4 µM | SF-268 75.2 µM | HT-29 47.6 µM | SNB-19 > 100 µM | SN12C 67 µM | SW-620 32.2 µM | K562 11.3 µM | SK-MEL-2 23.3 µM

O=C1CCC(c2ccccc2)=NN1c1nsc2ccccc12
inactive: RPMI-8226 70.1 µM | IGROV-1 97.9 µM | SNB-75 7.21 µM | OVCAR-3 83.8 µM | CCRF-CEM 61.4 µM | HOP-62 > 100 µM | NCI-H460 47.9 µM | NCI-H23 > 100 µM | SK-MEL-28 > 100 µM | UACC-257 > 100 µM | SF-268 > 100 µM | HT-29 > 100 µM | SNB-19 > 100 µM | SK-MEL-5 > 100 µM | SN12C > 100 µM | SW-620 > 100 µM | K562 74 µM | SK-MEL-2 > 100 µM

COc1cc([C@@H]2c3cc4c(cc3[C@@H](c3c(O)cc(O)c5c3O[C@H](c3ccc(O)c(O)c3)[C@@H](O)C5)[C@H]3COC(=O)[C@H]23)OCO4)cc(OC)c1O
inactive: RPMI-8226 53 µM | IGROV-1 > 100 µM | OVCAR-3 > 100 µM | SF-295 > 100 µM | NCI-H522 43.6 µM | CCRF-CEM 63.2 µM | HOP-62 > 100 µM | NCI-H460 > 100 µM | NCI-H23 > 100 µM | SK-MEL-28 89.1 µM | UACC-257 > 100 µM | SF-268 > 100 µM | HT-29 > 100 µM | SNB-19 > 100 µM | SK-MEL-5 46.7 µM | SN12C > 100 µM | SW-620 58.9 µM | K562 31.7 µM | SK-MEL-2 > 100 µM

COc1ccc(/C=N/n2c(C)nc3c(sc(=S)n3-c3ccccc3)c2=O)cc1
inactive: RPMI-8226 27 µM | IGROV-1 > 100 µM | SNB-75 14.4 µM | OVCAR-3 45.5 µM | SF-295 37.2 µM | NCI-H522 21.4 µM | CCRF-CEM 21.1 µM | HOP-62 66.8 µM | NCI-H460 31.6 µM | NCI-H23 > 100 µM | SK-MEL-28 43.7 µM | UACC-257 62.7 µM | SF-268 44.8 µM | HT-29 37.2 µM | SNB-19 82.4 µM | SK-MEL-5 > 100 µM | SW-620 > 100 µM | K562 25.6 µM

CC(C)(C)OC(=O)N1C2CCCC23O[C@@H]1c1cc2c(cc1C3=O)OCO2 (some centres undefined)
inactive: IGROV-1 20 µM | SNB-75 12.6 µM | OVCAR-3 8.81 µM | SF-295 20.8 µM | NCI-H522 8.89 µM | CCRF-CEM 21.1 µM | HOP-62 23.6 µM | NCI-H460 34 µM | NCI-H23 24.9 µM | SK-MEL-28 67.3 µM | UACC-257 52.8 µM | SF-268 41.8 µM | HT-29 14.5 µM | SNB-19 39.2 µM | SK-MEL-5 4.41 µM | SN12C 41.2 µM | SW-620 22.4 µM | K562 6.5 µM | SK-MEL-2 53.3 µM

Clc1ccc(-c2nnc(-c3nsc4ccccc34)o2)cc1
inactive: RPMI-8226 24.2 µM | IGROV-1 18.5 µM | SNB-75 8.17 µM | OVCAR-3 14 µM | HOP-62 13.8 µM | NCI-H460 23.3 µM | NCI-H23 17.5 µM | SK-MEL-28 33.3 µM | UACC-257 > 100 µM | SF-268 18.5 µM | HT-29 25.9 µM | SNB-19 30.8 µM | SK-MEL-5 31.3 µM | SN12C 36.6 µM | SW-620 50.5 µM | SK-MEL-2 28.5 µM

COCCO [2-METHOXYETHANOL]
inactive: RPMI-8226 > 100 µM | IGROV-1 > 100 µM | SNB-75 > 64.6 µM | OVCAR-3 > 100 µM | SF-295 > 100 µM | NCI-H522 > 100 µM | HOP-62 > 78.2 µM | NCI-H460 > 100 µM | NCI-H23 > 100 µM | SK-MEL-28 > 100 µM | UACC-257 > 100 µM | SF-268 > 100 µM | HT-29 > 100 µM | SNB-19 > 100 µM | SK-MEL-5 > 100 µM | SN12C > 100 µM | SW-620 > 100 µM | K562 > 100 µM | SK-MEL-2 > 100 µM

From ChEMBL document CHEMBL1201862, “PubChem BioAssay data set” (2004)
